Measurements as given in paper PMC7496286, “The Selectivity of Fosfosal for STAT5b over STAT5a is Mediated by Arg566 in the Linker Domain” (Chembiochem, 2020).
Residue numbers refer to the chain shown, from its start. “And” between values parts separate entries of the source, which are not always exact repeats. Identical values can stand only once.

Tests used:
[1] = biological target: T1, STAT5b SH2 domain (Homo sapiens, UniProt P51692); experiment: Fluorescence polarization (FP)-based competitive binding assay, wild-type STAT5b
T1 construct: His; made in house
T1 sequence (P51692 1-787): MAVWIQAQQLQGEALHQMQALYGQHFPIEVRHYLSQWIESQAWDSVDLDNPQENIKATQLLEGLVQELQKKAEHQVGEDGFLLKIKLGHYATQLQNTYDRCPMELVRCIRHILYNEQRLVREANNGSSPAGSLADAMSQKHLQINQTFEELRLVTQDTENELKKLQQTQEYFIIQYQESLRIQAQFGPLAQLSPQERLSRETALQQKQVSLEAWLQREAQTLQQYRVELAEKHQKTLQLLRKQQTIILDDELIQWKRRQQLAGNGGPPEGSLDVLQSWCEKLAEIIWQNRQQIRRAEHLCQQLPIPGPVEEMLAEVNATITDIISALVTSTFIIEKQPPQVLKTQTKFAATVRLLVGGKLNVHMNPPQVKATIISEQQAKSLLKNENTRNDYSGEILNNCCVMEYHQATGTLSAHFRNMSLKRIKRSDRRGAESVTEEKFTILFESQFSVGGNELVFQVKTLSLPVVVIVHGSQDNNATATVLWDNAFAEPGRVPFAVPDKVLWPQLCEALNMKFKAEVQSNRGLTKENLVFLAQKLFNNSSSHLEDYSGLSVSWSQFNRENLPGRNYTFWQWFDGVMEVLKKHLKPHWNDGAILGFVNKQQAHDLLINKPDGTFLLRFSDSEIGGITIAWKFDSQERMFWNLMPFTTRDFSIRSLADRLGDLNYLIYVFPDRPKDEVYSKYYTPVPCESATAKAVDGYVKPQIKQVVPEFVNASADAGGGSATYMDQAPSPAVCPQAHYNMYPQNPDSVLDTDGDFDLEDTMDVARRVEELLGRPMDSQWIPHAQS
Method: (§1) Fluorescence polarization assays
(§2) The ability of test compounds to displace 5-carboxyfluorescein-GY(PO3H2)LVLDKW (final concentration: 10 nM) from the SH2 domain of STAT5a/b proteins was analyzed. Proteins […]
(§3) was applied in dilution series comprising the following concentrations: 0.024 – 200 µM […]
(§4) and 0.146 – 600 µM (STAT5b Arg566Glu), respectively. The assays were performed in buffer containing 10 mM Tris, 50 mM NaCl, 1 mM DTT, 1 mM EDTA and 0.1% (v/v) NP-40. Fosfosal was dissolved in DMSO. STAT5a/b proteins and fosfosal were incubated at room temperature for 1 h before adding peptide. Samples were transferred to 384-well microtiter plates and fluorescence polarization was read after a further 1 h incubation time. All measurements were performed in triplicate (n=3), except for STAT5b (n=6) and STAT5a Trp566Arg (n=4). Percent binding was calculated based on a logarithmic curve fit using OriginPro 8G software. IC50 values were converted to Ki values using the published equation.[4] […]
[2] N. Elumalai, A. Berg, K. Natarajan, A. Scharow, T. Berg, Angew. Chem. Int. Ed. 2015, […]
[3] M. Gräber, W. Janczyk, B. Sperl, N. Elumalai, C. Kozany, F. Hausch, T. A. Holak, T.
(§5) [4] Z. Nikolovska-Coleska, R. Wang, X. Fang, H. Pan, Y. Tomita, P. Li, P. P. Roller, K.
(§6) Krajewski, N. G. Saito, J. A. Stuckey, S. Wang, Anal. Biochem. 2004, 332, 261-273.

[2] = biological target: T2, STAT5b-6M (Gln636Pro/Met639Asn/Phe640Leu/Met644Lys/Asn664Ser/Tyr679Phe) (Homo sapiens, UniProt P51692, F640L/M639N/M644K/N664S/Q636P/Y679F); experiment: FP-based competitive binding assay, STAT5b-6M
T2 construct: His; made in house
T2 sequence (P51692 1-787 Q636P/M639N/F640L/M644K/N664S/Y679F): T1 sequence (P51692 1-787) with Q636P, M639N, F640L, M644K, N664S, Y679F
Method: as §1, §2, §3, §4, §5, §6

selectivity for STAT5b over STAT5a ([1]; Ki STAT5a versus Ki STAT5b)	IC50 ([1]; wild-type STAT5b) [µM]	Ki ([1]; wild-type STAT5b, Ki calculated from IC50 with published equation, n=6) [µM]	IC50 ([2]; STAT5b-6M) [µM]	Ki ([2]; STAT5b-6M, Ki calculated from IC50) [µM]	increase of activity against STAT5b-6M compared to wild type STAT5b ([2]; ratio of Ki values) [fold]	SMILES	Kd ([1]; Kd, fluorescent tracer peptide binding to STAT5b)	Kd [2] [µM]
						CC(C)C[C@H](NC(=O)[C@H](Cc1ccc(OP(=O)(O)O)cc1)NC(=O)CNC(=O)c1ccc2c(c1)C(=O)OC21c2ccc(O)cc2Oc2cc(O)ccc21)C(=O)N[C@H](C(=O)N[C@@H](CC(C)C)C(=O)N[C@@H](CC(=O)O)C(=O)N[C@@H](CCCCN)C(=O)N[C@@H](Cc1c[nH]c2ccccc12)C(=O)O)C(C)C [5-carboxyfluorescein-GY(PO3H2)LVLDKW]	0.082 µM and 0.095 µM	0.085
fivefold	59.5 ± 3.6	29.3 ± 1.8	21.3 ± 1.2	10.7 ± 0.6	~3	O=C(O)c1ccccc1OP(=O)(O)O [fosfosal, O‐phosphorylated salicylic acid]		
